Source: patent US20160100574A1, “Antimicrobial Compositions Comprising Glyceryl Ethers” (SYMRISE AG, priority 2013, published 2016)

Assays:
Type in all cases: cell-based
C. albicans = assay: Challenge test of preserved emulsion, C. albicans; conditions: for colony counts Day 7: Day 7, 1% b.w. active in aqueous emulsion of Glyceryl stearyl citrate (Dracorin CE); for colony counts Day 14: Day 14, 1% b.w. active in aqueous emulsion of Glyceryl stearyl citrate (Dracorin CE); for colony counts Day 28: Day 28, 1% b.w. active in aqueous emulsion of Glyceryl stearyl citrate (Dracorin CE)
Protocol: (§1) 1% b.w. of heptylglycerin, benzylglycerin and phenylpropylglycerin, respectively was added to an aqueous emulsion of Glyceryl stearyl citrate (Dracorin CE). The formulations were tested in standard challenge tests against various micro-organisms. The results are shown in Table 1 and indicate the high activity of the actives against yeast and bacteria, but not against mould.

E. coli = assay: Challenge test of preserved emulsion, E. coli; conditions: for colony counts Day 2: Day 2, 1% b.w. active in aqueous emulsion of Glyceryl stearyl citrate (Dracorin CE); for colony counts Day 7: Day 7, 1% b.w. active in aqueous emulsion of Glyceryl stearyl citrate (Dracorin CE); for colony counts Day 14: Day 14, 1% b.w. active in aqueous emulsion of Glyceryl stearyl citrate (Dracorin CE); for colony counts Day 28: Day 28, 1% b.w. active in aqueous emulsion of Glyceryl stearyl citrate (Dracorin CE)
Protocol: as §1

P. aeruginosa = assay: Challenge test of preserved emulsion, P. aeruginosa; conditions: for colony counts Day 2: Day 2, 1% b.w. active in aqueous emulsion of Glyceryl stearyl citrate (Dracorin CE); for colony counts Day 7: Day 7, 1% b.w. active in aqueous emulsion of Glyceryl stearyl citrate (Dracorin CE); for colony counts Day 14: Day 14, 1% b.w. active in aqueous emulsion of Glyceryl stearyl citrate (Dracorin CE); for colony counts Day 28: Day 28, 1% b.w. active in aqueous emulsion of Glyceryl stearyl citrate (Dracorin CE)
Protocol: as §1

S. aureus = assay: Challenge test of preserved emulsion, S. aureus; conditions: for colony counts Day 2: Day 2, 1% b.w. active in aqueous emulsion of Glyceryl stearyl citrate (Dracorin CE); for colony counts Day 7: Day 7, 1% b.w. active in aqueous emulsion of Glyceryl stearyl citrate (Dracorin CE); for colony counts Day 14: Day 14, 1% b.w. active in aqueous emulsion of Glyceryl stearyl citrate (Dracorin CE); for colony counts Day 28: Day 28, 1% b.w. active in aqueous emulsion of Glyceryl stearyl citrate (Dracorin CE)
Protocol: as §1

A. brasiliensis = assay: Challenge test / synergy (Kull equation), A. brasiliensis; conditions: for colony counts Day 2: Day 2, 1% b.w. active in aqueous emulsion of Glyceryl stearyl citrate (Dracorin CE); for colony counts Day 14: Day 14, 1% b.w. active in aqueous emulsion of Glyceryl stearyl citrate (Dracorin CE); for colony counts Day 28: Day 28, 1% b.w. active in aqueous emulsion of Glyceryl stearyl citrate (Dracorin CE)
Protocol: 1% b.w. of heptylglycerin, benzylglycerin and phenylpropylglycerin, respectively was added to an aqueous emulsion of Glyceryl stearyl citrate (Dracorin CE). The formulations were tested in standard challenge tests against various micro-organisms.
To calculate the synergism between compounds of formula (I) and other antimicrobial actives, the Kull equation^1 2 was used
SI=(Cmixture×PA)/CA+(Cmixture×PB)/CB (I)
where SI is the Synergy Index according to Kull^1), 2) CA is the cell count for substance A CB is the cell count for substance B Cmixture is the cell count for the mixture of substances A and B PA is the proportion of the substance A in the mixture PB is the proportion of the substance B in the mixture. ^1 Kull, F. C., Eismann, P. C., Sylvestrowicz, H. D., and R. L. Mayer (1961). Mixtures of Quaternary Ammonium Compounds and Long-chain Fatty Acids as Antifungal Agents. Applied Microbiology 9, 538-541.^2 Steinberg, D.C. (2000). Measuring Synergy. Cosmetics & Toiletries 115 (11), 59-62.
Colony counts of <100 were arbitrarily set to 100, in order to allow for synergy calculations with the above equation. The abbreviation “n.a.” means not applicable.

Staphylococcus aureus = assay: Minimum inhibitory concentration according to DIN 58940, Staphylococcus aureus; conditions: Staphylococcus aureus, single antimicrobial agents
From the text: (§2) In order to calculate the Synergy Index SI with MIC values, the Kull equation is used as follows:
(§3) SI=(MICmixture×PA)/MICA+(MICmixture×PB)/MICB (II)
(§4) where SI is the Synergy Index according to Kull^1), 2) MICA is the MIC value for substance A MICB is the MIC value for substance B MICmixture is the MIC value for the mixture of substances A and B PA is the proportion of the substance A in the mixture PB is the proportion of the substance B in the mixture. b) Mixtures containing 3 components
(§5) SI=(MICmixture×PA)/MICA+(MICmixture×PB)/MICB+(MICmixture×PC)/MICC
(§6) where SI is the Synergy Index according to Kull^1), 2) MICA is the MIC value for substance A MICB is the MIC value for substance B MICC is the MIC value for substance C MICmixture is the MIC value for the mixture of substances […] PA is the proportion of the substance A in the mixture PB is the proportion of the substance B in the mixture. PC is the proportion of the substance C in the mixture.

Candida albicans = assay: Minimum inhibitory concentration according to DIN 58940, Candida albicans; conditions: Candida albicans, single antimicrobial agents
From the text: as §2, §3, §4, §5, §6

Aspergillus brasiliensis = assay: Minimum inhibitory concentration according to DIN 58940, Aspergillus brasiliensis; conditions: Aspergillus brasiliensis, single antimicrobial agents
From the text: as §2, §3, §4, §5, §6

Pseudomonas aeruginosa = assay: Minimum inhibitory concentration according to DIN 58940, Pseudomonas aeruginosa; conditions: Pseudomonas aeruginosa, single antimicrobial agents
From the text: as §2, §3, §4, §5, §6

Escherichia coli = assay: Minimum inhibitory concentration according to DIN 58940, Escherichia coli; conditions: Escherichia coli, single antimicrobial agents, read-out: MIC values E. coli
From the text: as §2, §3, §4, §5, §6

[1] = Day 0, 1% b.w. active in aqueous emulsion of Glyceryl stearyl citrate (Dracorin CE)

| Compound | colony counts Day 7 (C. albicans) [cfu/g formulation] | colony counts Day 14 (C. albicans) [cfu/g formulation] | colony counts Day 28 (C. albicans) [cfu/g formulation] | colony counts Day 2 (E. coli) [cfu/g formulation] | colony counts Day 7 (E. coli) [cfu/g formulation] | colony counts Day 14 (E. coli) [cfu/g formulation] | colony counts Day 28 (E. coli) [cfu/g formulation] | colony counts Day 2 (P. aeruginosa) [cfu/g formulation] | colony counts Day 7 (P. aeruginosa) [cfu/g formulation] | colony counts Day 14 (P. aeruginosa) [cfu/g formulation] | colony counts Day 28 (P. aeruginosa) [cfu/g formulation] | colony counts Day 2 (S. aureus) [cfu/g formulation] | colony counts Day 7 (S. aureus) [cfu/g formulation] | colony counts Day 14 (S. aureus) [cfu/g formulation] | colony counts Day 28 (S. aureus) [cfu/g formulation] | MIC (Staphylococcus aureus) [µg/mL] | MIC (Candida albicans) [µg/mL] | MIC (Aspergillus brasiliensis) [µg/mL] | MIC (Pseudomonas aeruginosa) [µg/mL] | MIC (Escherichia coli) [µg/mL] | other results |
| --- | --- | --- | --- | --- | --- | --- | --- | --- | --- | --- | --- | --- | --- | --- | --- | --- | --- | --- | --- | --- | --- |
| CCCCCCCOCC(O)CO (stereo not drawn) [Heptylglycerin] | 0 | 0 | 0 | 0 | 0 | 0 | 0 | 0 | 0 | 0 | 0 | 0 | 0 | 0 | 0 | 2500 | 2000 | 1000 | 5000 | 2000 | colony counts Day 2 (C. albicans; Day 2, 1% b.w. active in aqueous emulsion of Glyceryl stearyl citrate (Dracorin CE)): <100 cfu/g formulation; colony counts Day 0 (E. coli; [1]): 210.000 cfu/g formulation; colony counts Day 0 (P. aeruginosa; [1]): 250.000 cfu/g formulation; colony counts Day 0 (S. aureus; [1]): 230.000 cfu/g formulation; colony counts Day 0 (A. brasiliensis; [1]): 220.000 cfu/g formulation; colony counts Day 2 (A. brasiliensis): 320.000 cfu/g formulation; colony counts Day 14 (A. brasiliensis): 300.000 cfu/g formulation; colony counts Day 28 (A. brasiliensis): 170.000 cfu/g formulation; Colony counts day 0 (A. brasiliensis; Table 3, day 0, 1.0% total active): 220.000 cfu/g formulation; Relative colony counts day 0 (A. brasiliensis; Table 3, day 0, relative to day 0, 1.0% total active): 1.0000; Colony counts day 2 (A. brasiliensis; Table 3, day 2, 1.0% total active): 320.000 cfu/g formulation; Relative colony counts day 2 (A. brasiliensis; Table 3, day 2, relative to day 0, 1.0% total active): 1.4545; Colony counts day 7 (A. brasiliensis; Table 3, day 7, 1.0% total active): 340.000 cfu/g formulation; Relative colony counts day 7 (A. brasiliensis; Table 3, day 7, relative to day 0, 1.0% total active): 1.5455; Colony counts day 14 (A. brasiliensis; Table 3, day 14, 1.0% total active): 300.000 cfu/g formulation; Relative colony counts day 14 (A. brasiliensis; Table 3, day 14, relative to day 0, 1.0% total active): 1.3636; Colony counts day 28 (A. brasiliensis; Table 3, day 28, 1.0% total active): 170.000 cfu/g formulation; Relative colony counts day 28 (A. brasiliensis; Table 3, day 28, relative to day 0, <100 set to 100, 1.0% total active): 0.7727 |
| CCCCCCOCC(O)CO (stereo not drawn) [Hexylglycerin] |  |  |  |  |  |  |  |  |  |  |  |  |  |  |  | 6000 | 6000 | 4000 | 6000 | 4000 |  |
| CCCCCCCCOCC(O)CO (stereo not drawn) [Octylglycerin] |  |  |  |  |  |  |  |  |  |  |  |  |  |  |  | 1000 | 1000 | 500 | > 2000 | 1000 |  |
| OCC(O)COCCCc1ccccc1 (stereo not drawn) [Phenylpropylglycerin] | <10 | <10 | <10 | <10 | <10 | <10 | <10 | <10 | <10 | <10 | <10 | <10 | <10 | <10 | <10 |  |  |  |  |  | colony counts Day 2 (A. brasiliensis): 500.000 cfu/g formulation; colony counts Day 14 (A. brasiliensis): 20.000 cfu/g formulation; colony counts Day 28 (A. brasiliensis): 5.900 cfu/g formulation |
